# Measured values: patent US11090285B2, “Treatment of circadian rhythm disorders” (Vanda Pharmaceuticals Inc., priority 2013, dated 2021)
# Tests used:
# [1] = target: T1, MT2R (Homo sapiens, UniProt P49286); assay: Melatonin receptor affinity, MT2R; format: binding
# T1 sequence (P49286 1-362): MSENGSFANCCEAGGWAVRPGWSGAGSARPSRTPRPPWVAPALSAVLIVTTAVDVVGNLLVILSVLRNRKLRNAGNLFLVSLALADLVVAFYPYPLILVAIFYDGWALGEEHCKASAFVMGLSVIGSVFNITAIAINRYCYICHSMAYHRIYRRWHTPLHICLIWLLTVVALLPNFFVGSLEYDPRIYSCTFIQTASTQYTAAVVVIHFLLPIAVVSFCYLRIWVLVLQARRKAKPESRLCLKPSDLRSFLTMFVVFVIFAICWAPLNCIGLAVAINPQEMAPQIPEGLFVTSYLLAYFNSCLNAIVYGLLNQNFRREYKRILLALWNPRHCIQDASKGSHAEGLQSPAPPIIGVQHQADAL
# Description: (§1) Tasimelteon is a white to off-white powder with a melting point of about 78° C. […] Tasimelteon has 2-4 times greater affinity for MT2R relative to MT1R.
# [2] = Solubility and pH of saturated solution; format: physicochemical
# Description: as §1
# [3] = tested on: Non-24 patients; assay: Phase advance of circadian rhythm on initiation of treatment; format: in vivo, human; details: upon initiation of treatment
# Description: For example, treatment of a patient who has a target bedtime of 10:00 p.m. and a target wake time of 7:00 a.m., treatment initiation can be on a day when urinary aMT6s acrophase is predicted to occur at 3:30 am. However, treatment with tasimelteon can conveniently be initiated on a day on which melatonin acrophase, e.g., using calculated urinary aMT6s acrophase, is predicted to be between about 5.5 hours before target wake time and 2.5 hours after target wake time. Without intending to be bound to a particular theory, this flexibility is apparently owing to the unusually marked effects of such active ingredient on circadian rhythm upon initiation of treatment (e.g., phase advance by as much as about 5 hours on initial treatment).
# [4] = tested on: patients with Non-24; assay: SET Study, Phase III randomized, double-masked, placebo-controlled; format: in vivo, human
# Description: Specifically, patients were orally administered 20 mg tasimelteon per day for at least 12 weeks prior to re-estimating tau. Patients were selected for randomization or open label based on baseline tau estimates. Drug was administered at about 1 hour prior to target sleep time, as determined by patients based on a 9 hour nighttime sleep period.
# The SET study was an 84 patient randomized, double-masked, placebo-controlled study in patients with Non-24. The primary endpoints for this study were Entrainment of the melatonin (aMT6s) rhythm to the 24-hour clock and Clinical Response as measured by Entrainment plus a score of greater than or equal to 3 on the following N24CRS:
# The SET study also assessed a number of secondary endpoints including Entrainment of cortisol rhythm and a broad range of clinical sleep and wake parameters. These parameters included improvement in the total nighttime sleep in the worst 25% of nights (LQ-nTST), decrease in the total daytime sleep duration in the worst 25% of days (UQ-dTSD) and midpoint of sleep timing (MoST) which is derived from a combination of the sleep reported for both nighttime and daytime. CGI-C is a seven-point rating scale of global functioning with lower scores indicating larger improvements.
# [5] = tested on: blind individuals with Non-24; assay: RESET Study, randomized withdrawal, maintenance of effect; format: in vivo, human
# Description: Patients were treated with tasimelteon for at least twelve weeks during an open-label run-in phase during the SET Study. Patients who responded to tasimelteon treatment during the run-in phase were then randomized to receive either placebo or tasimelteon (20 mg/day) for 2 months.
# The primary endpoint of the RESET Study was the maintenance of effect as measured by entrainment of the melatonin (aMT6s) rhythm.
# The RESET study also assessed a number of secondary endpoints including maintenance of entrainment of the cortisol rhythm and a range of sleep and wake parameters including LQ-nTST (total nighttime sleep in the worst 25% of nights), UQ-dTSD (total daytime sleep duration in the worst 25% of days) and MoST (midpoint of sleep timing from both nighttime and daytime sleep).
# [6] = Pharmacokinetics on co-administration of tasimelteon and fluvoxamine; format: in vivo, human
# Description: Twenty-four healthy male or female subjects between the ages of 18 and 55 years of age (inclusive) who were non-smokers with a body mass index (BMI) of ≥18 and ≤35 kg/m2 participated in this open-label, single-sequence study conducted at one site. On day 1, subjects were administered […] of tasimelteon.
# [7] = Tasimelteon exposure with ketoconazole (CYP3A4 inhibitor); format: in vivo, human; details: single 20 mg dose on fifth day of ketoconazole 400 mg per day vs tasimelteon alone
# Description: Therefore, in cases where an individual is co-administered a CYP3A4 inhibitor, the dose of tasimelteon administered may be less than if administered alone or in the absence of a CYP3A4 inhibitor.
# For example, a pharmaceutical composition providing a dosage equivalent to a daily dosage between about 5 mg and about 15 mg of tasimelteon may be co-administered with a […] inhibitor.
# [8] = Tasimelteon exposure with Rifampin (CYP3A4 inducer); format: in vivo, human; details: single 20 mg dose after 11 days of 600 mg Rifampin
# Description: For example, when a single 20 mg dose of tasimelteon was administered after 11 days of the administration of 600 mg of Rifampin, tasimelteon mean exposure was reduced by approximately 89%. Therefore, in cases where an individual is co-administered a CYP3A4 inducer, the dose of tasimelteon administered may be greater than if administered alone or in the absence of a CYP3A4 inducer.
# [9] = 20 mg/day, SET secondary endpoint
# [10] = 20 mg/day, sensitivity analysis
# [11] = RESET, higher number indicates improvement
# [12] = co-administration of fluvoxamine vs tasimelteon alone
smiles,measurement,setting,value
"CCC(=O)NC[C@@H]1C[C@H]1c1cccc2c1CCO2 (relative stereo) [Tasimelteon, trans-N-[[2-(2,3-dihydrobenzofuran-4-yl)cycloprop-1yl]methyl]propanamide]",greater affinity for MT2R relative to MT1R,[1],2-4 times
same,effect of pH on aqueous solubility,[2],practically unaffected by pH
same,native pH of a saturated solution in water,[2],8.5
same,solubility in organic solvents,"[2]; 95% ethanol, methanol, acetonitrile, ethyl acetate, isopropanol, PEG-300 and PEG-400",very soluble or freely soluble
same,solubility in water,[2]; water,only slightly soluble
same,phase advance on initial treatment,[3],≤ 5 h
same,Entrainment (aMT6s),"[4]; 20 mg/day oral, SET primary endpoint",20.0%
same,LQ-nTST (LS mean minutes),"[4]; 20 mg/day, SET",57.0 min
same,MoST (LS mean minutes),"[4]; 20 mg/day, SET",34.8 min
same,Clinical Response (Entrainment + N24CRS >=3),"[4]; 20 mg/day, SET primary endpoint",23.7%
same,Entrainment (cortisol),[4]; [9],17.5%
same,N24CRS (LS mean minutes),[4]; [9],1.77 min
same,UQ-dTSD (LS mean minutes),"[4]; 20 mg/day, SET, smaller numbers indicate improvement",-46.2 min
same,Clinical Response (Entrainment + N24CRS >=2),[4]; [10],28.9%
same,N24CRS >=2,[4]; [10],57.9%
same,N24CRS >=3,[4]; [10],28.9%
same,CGI-C (LS mean minutes),"[4]; 20 mg/day, smaller numbers indicate improvement",2.6 min
same,safety and tolerability,[4]; SET study,safe and well tolerated
same,percentage of entrained patients,"[4]; on drug at least two circadian cycles, not on beta blockers, tau<24.7 hours",approximately 85%
same,LQ-nTST and UQ-dTSD >=90 min,[4]; only subjects with significant sleep and nap problems at baseline,23.8%
same,LQ-nTST and UQ-dTSD >=45 min,[4]; sensitivity analysis,31.6%
same,maintenance of entrainment (cortisol),"[5]; 20 mg/day, RESET",80.0%
same,Maintenance of entrainment (aMT6s),"[5]; 20 mg/day, RESET primary endpoint",90.0%
same,LQ-nTST (LS mean minutes),[5]; [11],-6.6 min
same,MoST (LS mean minutes),[5]; [11],19.8 min
same,UQ-dTSD (LS mean minutes),"[5]; RESET, lower number indicates improvement",-9.6 min
same,"LQ-nTST (LS mean minutes), Difference",[5]; tasimelteon vs placebo,67.2 min
same,"MoST (LS mean minutes), Difference",[5]; tasimelteon vs placebo,36.0 min
same,"UQ-dTSD (LS mean minutes), Difference",[5]; tasimelteon vs placebo,-59.4 min
same,"maintenance of entrainment (cortisol), Difference",[5]; tasimelteon vs placebo,60.0%
same,CL/F,"[6]; Day 1, 5.667 mg tasimelteon alone",107 ± 555 mL/min
same,CL/F,"[6]; Day 8, 5.667 mg tasimelteon + 50 mg fluvoxamine",189 ± 155 mL/min
same,"AUC (inf), Geometric Mean Ratio",[6]; Day 8 vs Day 1,653.36%
same,"CL/F, Geometric Mean Ratio",[6]; Day 8 vs Day 1,15.31%
same,"Cmax, Geometric Mean Ratio",[6]; Day 8 vs Day 1,232.74%
same,"t½, Geometric Mean Ratio",[6]; Day 8 vs Day 1,211.82%
same,increase of AUC0-inf,[6]; [12],approximately 7 fold
same,increase of Cmax,[6]; [12],approximately 2 fold
same,increase of tasimelteon exposure,[7],approximately 54%
same,reduction of tasimelteon mean exposure,[8],approximately 89%
